We go through two molecules from patent publication US12637452B2, “Crystalline forms of a substituted imidazopyridine compound and use thereof as P2X3 modulator” (GlaxoSmithKline Intellectual Property (No. 3) Limited, priority 2018, dated 2026).

Format in all cases: physicochemical
Series [1] in a line: Approximate solubility of starting material in 28 solvents at RT. The conditions noted are these: 25 °C, thermodynamic from solid, starting material Form A0. As to the method:
Approximate solubility of starting material (Compound 1, Form A0) was determined in 28 solvents at RT (25±3° C.). ˜2 mg of the starting material was added into each 3-mL glass vial. Solvents were then added stepwise (50/50/200/700 μL per step) into the vials until the solids were dissolved visually or a total volume of 1 mL was reached. Solubility results summarized in Table 2 were used to guide the solvent selection in screening design.

Series [2] in a line: Theoretical maxima water uptake of a monohydrate from the single crystal structure. The conditions noted are these: only lattice waters considered. An excerpt: A single crystal structure of Compound 1 Type A* family (form Type A0) was collected using crystals grown in ACN/H2O (1:3, v/v). Data were collected at 123 K using a Bruker D8 VENTURE diffractometer (Mo/Kα λ=0.71073 Å) with the following instrument parameters:
From the single crystal structure, there are four possible hydration sites in the unit cell. If each of the hydration sites is occupied by one water molecule, a monohydrate would be expected, which should correspond to the theoretical maxima water incorporation in the crystal lattice of Type A* family crystals. For a monohydrate, if only lattice waters are considered, the theoretical maxima water uptake is 3.9%, which is very close to the experimental DVS results (˜4.1-4.2% at 100% RH at 25° C.). In addition, there may be less than one water molecule on each hydration site because of the disorder, and a stoichiometry of less than 1:1 for water:API may be expected in an actual Type A* family crystal which is consistent with the almost linear increase/decrease of water content as a function of humidity in the DVS test.

Series [3] is described as follows: Dynamic vapor sorption (DVS) test, water uptake and form stability as a function of relative humidity. As to the method:
DVS test was performed using an SMS (Surface Measurement Systems) DVS Intrinsic instrument. The relative humidity were calibrated against deliquescence point of LiCl, Mg(NO3)2 and KCl. The following instrument parameters were used at 25° C. and 40° C.:
DVS test was performed for Type A* family to investigate its form stability as a function of relative humidity. The DVS test was first conducted in a couple of cycles with different ends (30% and 95% RH) at 25° C. The samples were equilibrated at each RH point until wt % change was lower than 0.002% or the total time reached 3 hrs.
The crystal forms after DVS test were detected by XRPD. For the cycle (ambient RH-95% RH-0% RH-30% RH), the crystal form after DVS test was determined to be Type A (FIG. 5), corresponding to the ambient humidity (61.5% RH) when performing XRPD analysis. While for the cycle (ambient RH-95% RH-0% RH-95% RH), Type A1 was observed after DVS test (FIG. 7), corresponding to the ambient humidity (66.3% RH) when performing XRPD analysis.
DVS test was also conducted in the cycle (ambient RH-95% RH-0% RH-95% RH) at 40° C.

Structures are written as SMILES. Values after ≈ are worked out from the molar mass of the structure shown.

What is called solubility is the concentration that dissolves in the medium under given conditions.

With `CNC(=O)c1cc(F)c(-c2nc3cc(C)ccn3c2C[C@H]2CN(C(=O)OC)CCO2)c(F)c1` [Compound 1, methyl (S)-2-((2-(2,6-difluoro-4-(methylcarbamoyl)phenyl)-7-methylimidazo[1,2-a]pyridin-3-yl)methyl)morpholine-4-carboxylate], the solubility in series [1] (organic solvent or mixture, solvent 1,2-Dichloroethane, RT (25±3° C.)) is above 38000 µg/mL; in series [1] (organic solvent or mixture, solvent 1,4-Dioxane, RT (25±3° C.)), 2400 to 8000 µg/mL (≈ 5.23 to 17.4 mM); in series [1] (organic solvent or mixture, solvent 1-Propanol, RT (25±3° C.)), above 38000 µg/mL; in series [1] (organic solvent or mixture, solvent 2-MeTHF, RT (25±3° C.)) it was 1800 to 6000 µg/mL (≈ 3.93 to 13.1 mM); in series [1] (organic solvent or mixture, solvent ACN, RT (25±3° C.)) it was 20000 to 40000 µg/mL (≈ 43.6 to 87.2 mM); in series [1] (organic solvent or mixture, solvent Acetone, RT (25±3° C.)) it was 19000 to 38000 µg/mL (≈ 41.4 to 82.9 mM). Also, the solubility in series [1] (organic solvent or mixture, solvent Anisole, RT (25±3° C.)) was 2000 to 6700 µg/mL (≈ 4.36 to 14.6 mM); in series [1] (organic solvent or mixture, solvent Butyl acetate, RT (25±3° C.)), below 2400 µg/mL; in series [1] (organic solvent or mixture, solvent CHCl3, RT (25±3° C.)), above 40000 µg/mL; in series [1] (organic solvent or mixture, solvent DCM, RT (25±3° C.)) it was above 40000 µg/mL; in series [1] (organic solvent or mixture, solvent DMF, RT (25±3° C.)), above 38000 µg/mL; in series [1] (organic solvent or mixture, solvent DMSO, RT (25±3° C.)) it was above 48000 µg/mL. Moreover, the solubility is 2400 to 8000 µg/mL (≈ 5.23 to 17.4 mM) in series [1] (organic solvent or mixture, solvent Diethyleneglycol, RT (25±3° C.)); 6700 to 20000 µg/mL (≈ 14.6 to 43.6 mM) in series [1] (organic solvent or mixture, solvent Dimethoxyethane, RT (25±3° C.)); below 2000 µg/mL in series [1] (organic solvent or mixture, solvent EtOAc, RT (25±3° C.)); above 46000 µg/mL in series [1] (organic solvent or mixture, solvent EtOH, RT (25±3° C.)); 20000 to 40000 µg/mL (≈ 43.6 to 87.2 mM) in series [1] (organic solvent or mixture, solvent IPA, RT (25±3° C.)); below 1900 µg/mL in series [1] (organic solvent or mixture, solvent IPAc, RT (25±3° C.)). Besides, the solubility in series [1] (organic solvent or mixture, solvent MEK, RT (25±3° C.)) is 7700 to 23000 µg/mL (≈ 16.8 to 50.2 mM); in series [1] (organic solvent or mixture, solvent MIBK, RT (25±3° C.)) it was below 2200 µg/mL; in series [1] (organic solvent or mixture, solvent MTBE, RT (25±3° C.)), below 2200 µg/mL; in series [1] (organic solvent or mixture, solvent MeOH, RT (25±3° C.)), above 44000 µg/mL; in series [1] (organic solvent or mixture, solvent THF, RT (25±3° C.)), above 46000 µg/mL; in series [1] (organic solvent or mixture, solvent Toluene, RT (25±3° C.)), below 2000 µg/mL. Moreover, the solubility in series [1] (organic solvent or mixture, solvent n-Butanol, RT (25±3° C.)) was above 42000 µg/mL; in series [1] (organic solvent or mixture, solvent n-Heptane, RT (25±3° C.)), below 1900 µg/mL; in series [1] (organic solvent or mixture, solvent n-Hexane, RT (25±3° C.)), below 2200 µg/mL; in series [1] (water, solvent H2O, RT (25±3° C.)), below 2400 µg/mL.
For the molecule `CNC(=O)c1cc(F)c(-c2nc3cc(C)ccn3c2C[C@H]2CN(C(=O)OC)CCO2)c(F)c1` [Type A* family, methyl (S)-2-((2-(2,6-difluoro-4-(methylcarbamoyl)phenyl)-7-methylimidazo[1,2-a]pyridin-3-yl)methyl)morpholine-4-carboxylate], the “theoretical maxima water uptake” value in series [2] was 3.9%. Further, the “crystal form after DVS test (XRPD)” value is “Type A” in series [3] (25° C., cycle ambient RH-95% RH-0% RH-30% RH, ambient humidity 61.5% RH at XRPD analysis); “Type A1” in series [3] (25° C., cycle ambient RH-95% RH-0% RH-95% RH, ambient humidity 66.3% RH at XRPD analysis); “Type A1” in series [3] (40° C., cycle ambient RH-95% RH-0% RH-95% RH, ambient humidity 69.5% RH at XRPD test). For the same molecule, in series [3] (at 100% RH at 25° C.), the “water uptake, experimental DVS results” value is 4.1-4.2%.
